According to publication PMC11749085, “Paeoniflorin relieves arterial stiffness induced by a high-fat/high-sugar diet by disrupting the YAP-PPM1B interaction” (Life Medicine, 2023):

What was measured:
[1] = molecular target: T1, LgBiT-YAP-CC / SmBiT-PPM1B (Homo sapiens, UniProt P46937); experiment: NanoBiT split-luciferase protein-protein interaction assay in HeLa cells; type: cell-based
T1 construct: gene YAP1; with Protein phosphatase 1B

[2] = molecular target: T2, YAP-CC domain (Homo sapiens, UniProt P46937); experiment: biolayer interferometry; type: binding; conditions: read-out: affinity
T2 construct: gene YAP1
Excerpt: biolayer interferometry on YAP-CC domain | a binding between paeoniflorin and the YAP-CC domain with an affinity of […]

T1 sequence (P46937 298-328): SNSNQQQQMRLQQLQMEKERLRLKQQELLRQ
T1 sequence (O75688 2-479 partner): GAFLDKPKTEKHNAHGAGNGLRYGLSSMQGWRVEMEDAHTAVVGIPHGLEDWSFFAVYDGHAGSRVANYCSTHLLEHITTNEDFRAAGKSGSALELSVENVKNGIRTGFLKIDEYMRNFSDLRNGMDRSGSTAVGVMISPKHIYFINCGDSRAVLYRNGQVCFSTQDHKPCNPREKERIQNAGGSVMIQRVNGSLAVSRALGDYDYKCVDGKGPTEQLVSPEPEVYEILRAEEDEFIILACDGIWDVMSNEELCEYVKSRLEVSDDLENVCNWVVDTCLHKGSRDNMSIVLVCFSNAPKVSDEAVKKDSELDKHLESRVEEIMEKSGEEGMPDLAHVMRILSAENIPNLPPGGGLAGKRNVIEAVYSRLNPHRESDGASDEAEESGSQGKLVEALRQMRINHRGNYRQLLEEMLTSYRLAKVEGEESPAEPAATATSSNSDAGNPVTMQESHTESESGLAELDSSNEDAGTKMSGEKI
T2 sequence (P46937 298-328): as the sequence (P46937 298-328) above

SMILES: C[C@@]12C[C@@]3(O)O[C@@H](O1)[C@]1(COC(=O)c4ccccc4)[C@H]3C[C@@]12O[C@@H]1O[C@H](CO)[C@@H](O)[C@H](O)[C@H]1O [paeoniflorin]
- IC50 [1]: 4.8 µM
- Kd [2]: 40.5 µM
